According to patent publication US10696973B2, “Inducible eukaryotic expression system” (Regeneron Pharmaceuticals, Inc., priority 2002, dated 2020):

What was measured:
Assay type in all cases: cell-based
[1] = molecular target: T1, TetR-ERLBDT2 regulatory fusion protein (UniProt P03372+P04483, G400V/L544A/M543A); assay: hFcγRI expression regulated by TetR-ERLBDT2 in CHO K1-FcR/pTE313 clones, FITC-hFc staining and flow cytometry; conditions: clone D124 (pool C12); OHT present without Dox
T1 construct: 11 amino acid linker […]; expressed in transfected cells; host or cells: CHO K1-FcR cells (CHO K1 with pTE158) stably transfected with pTE313
Method: The cells were placed in the culture medium (10% fetal bovine serum, 90% Ham's F-12, 2 mM L-glutamine; all reagents were from Life Technologies, Rockville, Md.) containing 500 G418 (Life Technologies) for 12 days. […] Briefly, cells grown on 10 cm culture plates were washed once with Dulbecco's phosphate-buffered saline (PBS) without calcium chloride and magnesium chloride (Life Technologies). Two milliliters of 0.25% trypsin (Life Technologies) was added to each plate and incubated at 37° C. for 4-5 min. The plates were swirled until the cells detached from the plate. Four milliliters of culture medium was immediately added to each plate of the detached cells. […] Washed cells capable of binding FITC-hFc were measured by flow cytometry on a MOFLO™ cell sorter (Cytomation; Fort Collins, Colo.). […] The total pool of fluorescent cells from the G418-resistant population was collected by flow cytometry, expanded then analyzed by flow cytometry for expression of hFcγRI. […]
Cells were incubated for three days then stained with FITC-hFc to detect the presence of hFcγRI. The top 60% of hFcγRI-positive cells from the culture induced with 1 μg/ml Dox were isolated to yield pool B 11, and cells with the lowest 30% fluorescence were isolated from cells grown in medium without Dox to yield pool B 12. […]

[2] = molecular target: T2, Arc2-ERLBDT2 fusion protein (Homo sapiens, UniProt P03372, G400V/L544A/M543A); assay: hFcγRI expression regulated by Arc2-ERLBDT2 in CHO K1/pTE534 cells transfected with pTE529, FITC-hFc staining and flow cytometry
T2 construct: expressed in transfected cells; host or cells: CHO K1/pTE534 cells (A2) or RGC12 cells, a CHO K1 derivative (A3), stably transfected with pTE529
T2 sequence (P03372 with tags, fused parts or gaps G400V/M543A/L544A): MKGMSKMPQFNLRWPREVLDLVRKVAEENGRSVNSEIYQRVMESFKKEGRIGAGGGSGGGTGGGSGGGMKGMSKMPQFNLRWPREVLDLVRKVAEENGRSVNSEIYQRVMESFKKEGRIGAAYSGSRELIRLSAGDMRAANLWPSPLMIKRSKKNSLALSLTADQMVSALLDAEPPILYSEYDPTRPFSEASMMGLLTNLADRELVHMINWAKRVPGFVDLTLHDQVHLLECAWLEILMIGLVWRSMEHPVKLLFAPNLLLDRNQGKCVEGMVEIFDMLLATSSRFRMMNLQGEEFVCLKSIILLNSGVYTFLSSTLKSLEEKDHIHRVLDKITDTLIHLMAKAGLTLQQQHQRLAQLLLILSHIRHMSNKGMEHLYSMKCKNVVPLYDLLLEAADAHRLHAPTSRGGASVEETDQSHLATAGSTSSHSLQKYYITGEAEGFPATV
Method: CHO K1 cells (2×10^6) were transfected with pTE534 using Lipofectamine™ as described above. The cells were placed in the culture medium (10% fetal bovine serum, 90% Ham's F-12, 2 mM L-glutamine; all reagents were from Invitrogen Life Technologies, Carlsbad, Calif.) containing 400 μg/ml G418 (Invitrogen Life Technologies) for 12 days. Cells resistant to G418 were trypsinized, pooled, and stained with 2 μg/ml of FITC-conjugated human IgG, Fc fragment (FITC-hFc) as described above. […] Cells that expressed hFcγRI bound FITC-hFc and were isolated based on their fluorescence by flow cytometry on a MOFLO™ cell sorter. Cells with the highest 3% fluorescence in this population were isolated, pooled, and expanded. This hFcγRI-positive pool was enriched by repeating the cell surface staining with FITC-hFc and sorting the top 30% most fluorescent cells in the population to yield pool B. Cells in pool B that were among the top 20% expressing hFcγRI were isolated to yield pool C. Pool C2 (CHOK1/pTE534) was used to generate inducible cell lines regulated by Arc-ERLBDT2.
CHO K1/pTE534 cells (2×10^6/dish) were transfected with either pRG985, an empty vector, or pTE529 using Lipofectamine™. […] The cells were stained with FITC-hFc as described above and analyzed by flow cytometry. […] This pool was expanded in the presence of OHT for 10 days, stained for hFcγRI expression and analyzed by flow cytometry. […]

[3] = molecular target: T2, Arc2-ERLBDT2 fusion protein; assay: Time course of 13SC1132 induction in clone C110 after removal of OHT, mean fluorescence of cell surface-displayed protein; conditions: clone C110 grown in 200 nM OHT, then washed; measured 3, 6 and 9 days after removal
Method: RGC12 cells (2×10^6) were transfected with 5 μg pTE529 encoding the Arc-ERLBDT2 protein driven by a ubiquitin promoter (FIG. 9) using Lipofectamine™ as described above. The cells were placed in the culture medium (10% fetal bovine serum, 90% Ham's F-12, 2 mM L-glutamine; all reagents were from lnvitrogen Life Technologies, Carlsbad, Calif.) containing 10 μg/ml puromycin (CalBiochem) for 14 days. Cells resistant to puromycin, expressing the Arc2-ERLBDT2 fusion protein, were then transfected with pTE689 encoding protein of interest […] (FIG. 8) as described above except the culture medium contained 200 nM OHT. […] Cells that secreted the highest levels of 13SC1132 as measured by 13SC1132 complexed with FcγRI on the cell surface (top 5%) were isolated by flow cytometry on a MOFLO™ cell sorter. Cells were grown in the presence of OHT for 7 days, and treated for screening as described above, but the cells with the lowest 5% cell surface fluorescence were isolated in order to enrich for clones with regulated expression of 13SC1132. Cells were then grown in the absence of OHT, treated for flow cytometry, and single cells with the highest 0.1% fluorescence in this population were isolated, expanded, and screened for 13SC1132 expression in the absence of OHT and tight regulation in the presence of OHT. […]

T1 sequence (P04483+P03372 fused P03372:G400V/P03372:M543A/P03372:L544A): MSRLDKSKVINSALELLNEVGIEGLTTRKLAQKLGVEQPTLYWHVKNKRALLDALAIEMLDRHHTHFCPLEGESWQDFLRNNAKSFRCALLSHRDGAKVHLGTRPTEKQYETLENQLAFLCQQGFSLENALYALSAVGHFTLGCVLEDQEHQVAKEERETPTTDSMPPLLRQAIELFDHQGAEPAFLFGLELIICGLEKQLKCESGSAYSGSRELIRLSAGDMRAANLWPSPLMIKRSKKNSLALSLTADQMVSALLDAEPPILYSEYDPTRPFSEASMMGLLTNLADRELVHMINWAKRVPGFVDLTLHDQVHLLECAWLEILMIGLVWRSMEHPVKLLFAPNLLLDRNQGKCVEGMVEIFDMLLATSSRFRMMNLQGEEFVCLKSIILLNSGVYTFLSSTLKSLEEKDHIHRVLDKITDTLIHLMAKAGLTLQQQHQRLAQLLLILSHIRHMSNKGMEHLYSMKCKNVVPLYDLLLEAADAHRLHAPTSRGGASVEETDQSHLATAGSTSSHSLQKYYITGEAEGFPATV

For 4-hydroxytamoxifen [OHT], the “level of hFcγRI expression” value [1] was “no detectable level of hFcγRI”, the “level of hFcγRI expression” value ([2]; clone C17, OHT present in the medium) was “No detectable level of hFcγRI” and the “cells in pool that did not express hFcγRI” value ([2]; sorted pool expanded in the presence of OHT for 10 days) was “Over 70%”. The “time after OHT removal until full induction of 13SC1132 expression” value [3] was 6 days.
